The source of these data is ChEMBL document CHEMBL5518193, “Discovery of N-alkyl-N-benzyl thiazoles as novel TRPC antagonists for the treatment of glioblastoma multiforme” (Eur J Med Chem, 2024).

By IC50 is commonly meant the concentration that inhibits the measured activity by half. As a reminder, the Cmax is the maximum level reached in the sampled fluid or tissue. What is called AUC(0-inf) is total exposure, with the tail of the curve extrapolated. Low values mean less exposure, high ones more exposure. As a reminder, the Tmax is the time at which the peak concentration occurs.

The target in data set [1] is T1, Short transient receptor potential channel 5 (Homo sapiens, UniProt Q9UL62).
T1 sequence (Q9UL62 whole entry): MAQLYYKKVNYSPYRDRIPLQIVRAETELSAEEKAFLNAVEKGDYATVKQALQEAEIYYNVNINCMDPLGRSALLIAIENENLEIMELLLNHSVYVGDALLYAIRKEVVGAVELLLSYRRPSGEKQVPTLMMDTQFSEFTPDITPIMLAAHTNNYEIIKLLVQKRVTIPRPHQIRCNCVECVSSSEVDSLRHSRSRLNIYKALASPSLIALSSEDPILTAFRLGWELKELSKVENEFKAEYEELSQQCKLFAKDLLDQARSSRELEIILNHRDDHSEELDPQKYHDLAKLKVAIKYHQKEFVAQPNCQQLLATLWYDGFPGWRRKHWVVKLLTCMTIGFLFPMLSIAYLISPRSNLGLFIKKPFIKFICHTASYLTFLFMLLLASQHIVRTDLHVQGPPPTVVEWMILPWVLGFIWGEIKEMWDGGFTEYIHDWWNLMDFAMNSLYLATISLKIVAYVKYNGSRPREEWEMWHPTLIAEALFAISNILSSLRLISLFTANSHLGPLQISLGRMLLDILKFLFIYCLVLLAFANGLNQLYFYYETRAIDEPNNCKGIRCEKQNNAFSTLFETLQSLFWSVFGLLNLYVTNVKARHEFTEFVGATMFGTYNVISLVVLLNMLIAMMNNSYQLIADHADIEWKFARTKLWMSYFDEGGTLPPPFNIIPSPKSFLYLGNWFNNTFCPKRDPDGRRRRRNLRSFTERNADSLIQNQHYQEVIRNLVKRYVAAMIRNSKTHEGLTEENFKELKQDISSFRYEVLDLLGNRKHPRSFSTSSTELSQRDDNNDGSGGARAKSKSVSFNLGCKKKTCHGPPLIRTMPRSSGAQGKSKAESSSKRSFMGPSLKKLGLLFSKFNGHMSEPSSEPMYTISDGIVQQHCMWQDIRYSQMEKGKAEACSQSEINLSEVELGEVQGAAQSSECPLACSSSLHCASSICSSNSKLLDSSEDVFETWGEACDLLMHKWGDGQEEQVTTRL
The experiment in a line: Antagonist activity at human TRPC5 stably expressed in HEK293 cells inhibition of calcium influx by calcium fluorescence assay. It counts as cell-based.

Data set [2] in a line: Cmax in BALB/c mouse at 50 mg/kg, ip administered as liposome encapsulated form and measured upto 24 hrs by LC-MS/MS analysis. It counts as ADME, organism-based. Particulars: in vivo.
Data set [3] can be described thus: AUC (0 to infinity) in BALB/c mouse at 25 mg/kg, ip administered as liposome encapsulated form and measured upto 24 hrs by LC-MS/MS analysis. In kind it is ADME, organism-based. Particulars: in vivo.
Data set [4] addresses T2, Short transient receptor potential channel 3 (Homo sapiens, UniProt Q13507).
T2 sequence (Q13507 whole entry): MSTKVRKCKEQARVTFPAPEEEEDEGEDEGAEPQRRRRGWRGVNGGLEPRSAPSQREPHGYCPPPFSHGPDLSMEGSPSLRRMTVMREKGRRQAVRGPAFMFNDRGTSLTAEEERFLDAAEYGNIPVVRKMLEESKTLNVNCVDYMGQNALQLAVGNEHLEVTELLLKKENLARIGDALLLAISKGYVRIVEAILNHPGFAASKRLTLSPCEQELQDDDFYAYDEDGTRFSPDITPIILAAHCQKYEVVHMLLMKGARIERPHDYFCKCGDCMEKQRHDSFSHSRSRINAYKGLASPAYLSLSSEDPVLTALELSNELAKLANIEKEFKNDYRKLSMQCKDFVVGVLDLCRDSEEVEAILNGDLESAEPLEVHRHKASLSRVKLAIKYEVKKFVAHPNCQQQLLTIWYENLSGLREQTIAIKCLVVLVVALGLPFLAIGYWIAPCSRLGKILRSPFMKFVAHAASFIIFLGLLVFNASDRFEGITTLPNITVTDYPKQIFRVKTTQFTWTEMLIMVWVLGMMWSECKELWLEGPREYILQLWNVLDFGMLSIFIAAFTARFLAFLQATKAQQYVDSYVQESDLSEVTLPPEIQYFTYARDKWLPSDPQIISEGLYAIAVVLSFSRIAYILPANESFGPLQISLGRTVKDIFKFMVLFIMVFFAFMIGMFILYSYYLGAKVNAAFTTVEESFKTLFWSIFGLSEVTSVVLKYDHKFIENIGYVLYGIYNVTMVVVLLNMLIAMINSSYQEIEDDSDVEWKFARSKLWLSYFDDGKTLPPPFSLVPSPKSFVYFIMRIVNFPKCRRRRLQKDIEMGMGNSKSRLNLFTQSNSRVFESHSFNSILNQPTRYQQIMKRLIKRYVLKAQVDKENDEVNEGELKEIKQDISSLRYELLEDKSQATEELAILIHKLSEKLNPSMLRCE
Briefly: Antagonist activity at human TRPC3 stably expressed in HEK293 cells inhibition of calcium influx by calcium fluorescence assay. It counts as cell-based.

The nature of data set [5]: AUC (0 to infinity) in BALB/c mouse at 12.5 mg/kg, ip administered as liposome encapsulated form and measured upto 24 hrs by LC-MS/MS analysis. Particulars: in vivo. In kind it is ADME, organism-based.
The nature of data set [6]: Tmax in BALB/c mouse at 50 mg/kg, ip administered as liposome encapsulated form and measured upto 24 hrs by LC-MS/MS analysis. In kind it is ADME, organism-based. The conditions noted are these: in vivo.
A short description of data set [7]: Apparent clearance in BALB/c mouse at 12.5 mg/kg, ip administered as liposome encapsulated form and measured upto 24 hrs by LC-MS/MS analysis. Particulars: in vivo, read-out: CL(app) (converted). In kind it is ADME, organism-based.
Data set [8] in a line: Selectivity index, ratio of IC50 for human A549 cells to IC50 for human U87 cells. In kind it is functional.
A short description of data set [9]: Selectivity index, ratio of IC50 for human HCT-116 cells to IC50 for human U87 cells. It counts as functional.
A short description of data set [10]: Toxicity against BALB/c nude mouse xenografted with human U87 cells assessed as mortality at 12.5 to 50 mg/kg/day administered as liposome encapsulated form for 15 days. In kind it is organism-based, U-87MG ATCC. Particulars: in vivo, 360 h, dose 12.5-50 mg/kg/day, time 15 day. (A xenograft is tissue or cells of one species grown in another, often human tumour cells in immunodeficient mice.)

In another data set the test system is MKN-45. Briefly: Antiproliferative activity against human MKN-45 cells assessed as reduction in cell viability incubated for 72 hrs by MTT assay. It counts as functional, cell-based. The conditions noted are these: MKN-45, 72 h. In general terms: Tetrazolium dyes change colour on reduction, which living cells bring about.
The nature of data set [11]: Tmax in BALB/c mouse at 25 mg/kg, ip administered as liposome encapsulated form and measured upto 24 hrs by LC-MS/MS analysis. Particulars: in vivo. In kind it is ADME, organism-based.
The next data set concerns HCT-116. Briefly: Antiproliferative activity against human HCT-116 cells assessed as reduction in cell viability incubated for 72 hrs by MTT assay. In kind it is functional, cell-based. The conditions noted are these: HCT-116, 72 h.
For the next data set, the system named is U-87 MG. The experiment in a line: Antitumor activity against human U87 cells xenografted in BALB/c nude mouse assessed as tumor growth inhibition at 25 mg/kg/day administered as liposome encapsulated form for 15 days and measured every 3 days by vernier caliper. It counts as functional, U-87MG ATCC. Particulars: 360 h, time 15 day, read-out: TGI.
Data set [12] is described as follows: Terminal half life in BALB/c mouse at 50 mg/kg, ip administered as liposome encapsulated form and measured upto 24 hrs by LC-MS/MS analysis. It counts as ADME, organism-based. Particulars: in vivo, read-out: beta t1/2 (converted).

Take `NCCN(Cc1ccc2ccccc2c1)c1nc(C(=O)Nc2ccc(O)cc2)cs1`: the IC50 in data set [1] came to 7.6 µM; in [4], 2.4 µM; in the data set on MKN-45, 11 µM; in the data set with HCT-116 it was 9.8 µM. The molecule also showed a Cmax in data set [2] of 2910 ng/mL. For the same molecule, the values for the AUC(0-inf) in [3] and in [5] were 6920 ng·h/mL and 2790 ng·h/mL, respectively. Moreover, the Tmax in [6] and in data set [11] was 4 h each time. The CL/F in [7] was 74.6 mL/min/kg. For the same molecule, the “Ratio IC50” value in data set [8] and in data set [9] was 2 each time. In addition, the Activity result in data set [10] is given as “Non-Toxic”. In addition, in the data set on U-87 MG, the inhibition in vivo at 25 mg/kg/day came out at 45.8%. In [12], the half-life is 3.8 h.
